These results are taken from ChEMBL document CHEMBL3991601, “The target landscape of clinical kinase drugs” (Science, 2017).

Test [1] has as its target T1, Mitogen-activated protein kinase kinase kinase 3 (Homo sapiens, UniProt Q99759).
T1 sequence (Q99759 whole entry): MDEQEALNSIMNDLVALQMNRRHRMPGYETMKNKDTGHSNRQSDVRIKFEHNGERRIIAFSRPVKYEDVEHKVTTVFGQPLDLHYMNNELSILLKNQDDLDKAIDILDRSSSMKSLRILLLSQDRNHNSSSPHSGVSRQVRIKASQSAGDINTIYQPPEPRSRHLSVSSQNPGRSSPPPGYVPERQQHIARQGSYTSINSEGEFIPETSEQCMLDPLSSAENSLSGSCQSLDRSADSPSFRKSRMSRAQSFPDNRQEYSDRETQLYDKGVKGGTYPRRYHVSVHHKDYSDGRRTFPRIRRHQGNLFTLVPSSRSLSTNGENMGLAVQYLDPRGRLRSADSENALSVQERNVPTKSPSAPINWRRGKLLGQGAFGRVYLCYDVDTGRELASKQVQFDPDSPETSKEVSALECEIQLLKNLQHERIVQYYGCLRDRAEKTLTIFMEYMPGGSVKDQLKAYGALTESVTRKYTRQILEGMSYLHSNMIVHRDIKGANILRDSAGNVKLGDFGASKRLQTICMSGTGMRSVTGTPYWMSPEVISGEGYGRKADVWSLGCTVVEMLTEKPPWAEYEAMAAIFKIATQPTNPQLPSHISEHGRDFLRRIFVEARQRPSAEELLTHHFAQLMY

Test [2] addresses T2, Glycogen phosphorylase, brain form (Homo sapiens, UniProt P11216).
T2 sequence (P11216 whole entry): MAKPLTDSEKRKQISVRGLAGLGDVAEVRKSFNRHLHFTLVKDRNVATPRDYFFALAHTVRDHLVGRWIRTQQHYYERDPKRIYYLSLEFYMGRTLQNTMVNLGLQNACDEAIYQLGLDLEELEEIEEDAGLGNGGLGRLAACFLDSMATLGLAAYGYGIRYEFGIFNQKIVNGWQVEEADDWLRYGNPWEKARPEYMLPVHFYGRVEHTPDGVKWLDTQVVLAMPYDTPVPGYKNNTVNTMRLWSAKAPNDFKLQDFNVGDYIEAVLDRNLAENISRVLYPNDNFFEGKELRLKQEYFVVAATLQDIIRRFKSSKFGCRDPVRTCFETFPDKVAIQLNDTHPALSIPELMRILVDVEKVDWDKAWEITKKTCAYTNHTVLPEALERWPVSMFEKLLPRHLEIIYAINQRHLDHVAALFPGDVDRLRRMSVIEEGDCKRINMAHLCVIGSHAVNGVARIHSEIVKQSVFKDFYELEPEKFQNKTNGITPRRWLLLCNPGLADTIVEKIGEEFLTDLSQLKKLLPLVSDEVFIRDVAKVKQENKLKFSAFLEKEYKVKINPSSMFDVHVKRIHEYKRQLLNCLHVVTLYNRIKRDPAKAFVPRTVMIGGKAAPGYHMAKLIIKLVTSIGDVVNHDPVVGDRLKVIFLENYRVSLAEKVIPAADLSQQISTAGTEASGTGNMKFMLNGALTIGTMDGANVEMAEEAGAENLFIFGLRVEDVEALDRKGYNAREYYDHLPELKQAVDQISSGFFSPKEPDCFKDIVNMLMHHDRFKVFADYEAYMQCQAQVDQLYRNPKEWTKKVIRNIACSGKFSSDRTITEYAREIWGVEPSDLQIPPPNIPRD

Test [3] deals with Serine/threonine-protein kinase PAK 2 (Homo sapiens, UniProt Q13177).
For test [4], the target named is T3, Ferrochelatase, mitochondrial (Homo sapiens, UniProt P22830).
T3 sequence (P22830 whole entry): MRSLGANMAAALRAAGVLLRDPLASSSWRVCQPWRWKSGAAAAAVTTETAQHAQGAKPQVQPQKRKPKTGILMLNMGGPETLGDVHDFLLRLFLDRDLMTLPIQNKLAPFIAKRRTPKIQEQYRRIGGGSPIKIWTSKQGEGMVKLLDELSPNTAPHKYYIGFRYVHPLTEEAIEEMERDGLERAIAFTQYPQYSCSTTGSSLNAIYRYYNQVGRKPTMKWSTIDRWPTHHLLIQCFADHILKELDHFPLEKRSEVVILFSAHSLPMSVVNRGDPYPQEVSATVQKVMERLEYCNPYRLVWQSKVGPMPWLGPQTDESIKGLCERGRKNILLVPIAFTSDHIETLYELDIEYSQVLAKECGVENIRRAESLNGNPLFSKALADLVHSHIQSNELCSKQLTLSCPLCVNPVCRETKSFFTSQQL

For test [5], the target named is T4, Serine/threonine-protein kinase 3 (Homo sapiens, UniProt Q13188).
T4 sequence (Q13188 whole entry): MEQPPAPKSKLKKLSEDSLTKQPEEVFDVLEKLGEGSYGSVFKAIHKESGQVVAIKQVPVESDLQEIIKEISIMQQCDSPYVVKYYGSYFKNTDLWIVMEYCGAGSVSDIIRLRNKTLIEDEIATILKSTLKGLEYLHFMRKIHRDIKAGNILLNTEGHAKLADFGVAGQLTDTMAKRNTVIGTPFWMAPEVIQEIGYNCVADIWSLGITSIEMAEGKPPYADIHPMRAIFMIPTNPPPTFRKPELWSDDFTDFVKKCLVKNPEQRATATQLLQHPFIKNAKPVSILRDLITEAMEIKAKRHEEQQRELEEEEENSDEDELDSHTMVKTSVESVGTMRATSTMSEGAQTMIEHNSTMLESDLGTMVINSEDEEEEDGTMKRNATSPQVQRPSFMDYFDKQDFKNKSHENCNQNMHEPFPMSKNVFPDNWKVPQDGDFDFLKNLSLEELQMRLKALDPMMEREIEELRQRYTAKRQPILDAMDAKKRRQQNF

Active and inactive are the calls of the source. Rule as the data show it, for most assays here: actives have a measured Kd and inactives only a lower limit. Some results are limits rather than exact numbers.
Also: in the data inactive means no Kd found up to 30 µM.

Serine/threonine-protein kinase PAK 2, sequence (Q13177 whole entry): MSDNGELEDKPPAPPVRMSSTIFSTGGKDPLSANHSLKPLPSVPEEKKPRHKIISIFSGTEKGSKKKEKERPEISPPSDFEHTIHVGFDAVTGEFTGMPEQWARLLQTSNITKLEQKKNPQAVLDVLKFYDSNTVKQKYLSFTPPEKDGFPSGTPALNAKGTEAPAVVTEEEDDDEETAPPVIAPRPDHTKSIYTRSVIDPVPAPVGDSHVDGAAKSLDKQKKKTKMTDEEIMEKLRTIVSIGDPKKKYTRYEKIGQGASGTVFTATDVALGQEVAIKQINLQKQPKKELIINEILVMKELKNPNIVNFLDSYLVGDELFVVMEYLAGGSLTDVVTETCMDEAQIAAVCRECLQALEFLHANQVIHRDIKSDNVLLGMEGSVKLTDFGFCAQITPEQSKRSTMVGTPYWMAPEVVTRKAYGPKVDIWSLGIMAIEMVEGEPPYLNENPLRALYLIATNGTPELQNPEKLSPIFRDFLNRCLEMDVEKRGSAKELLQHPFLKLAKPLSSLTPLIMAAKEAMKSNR

As a reminder, the Kd is a measure of binding affinity in units of concentration. `S=C(NCc1ccc2c(c1)OCO2)N1CCN(c2ncnc3c2oc2ccccc23)CC1` [AMUVATINIB]: the Kd in test [1], in test [2], in test [3], in test [4] and in test [5] was > 30 µM (inactive) each time.
As to `O[C@H]1CC[C@H](Nc2ncc3nc(Nc4c(F)cc(F)cc4F)n([C@H]4CCOC4)c3n2)CC1` [TANZISERTIB], the Kd in test [1], in test [2], in test [3], in test [4] and in test [5] was > 30 µM (inactive) in each case.
In the case of `COc1cccc2cc(-c3nc([C@H]4CC[C@H](C(=O)O)CC4)n4ncnc(N)c34)[nH]c12` [OSI-027], the Kd in test [1] is > 30 µM (inactive); in test [2], > 30 µM (inactive); in test [3], > 30 µM (inactive); in test [4] it was 12.6 µM (active); in test [5], > 30 µM (inactive).
`Cn1c(=O)n(-c2ccc(C(C)(C)C#N)cc2)c2c3cc(-c4cnc5ccccc5c4)ccc3ncc21` [DACTOLISIB]: the Kd in test [1], in test [2], in test [3], in test [4] and in test [5] was > 30 µM (inactive) throughout.
`C[C@@]1(C(=O)Nc2ccc(F)nc2)CCCN1c1nc(Nc2cc(C3CC3)n[nH]2)c2cccn2n1` [BMS-754807]: the Kd in test [2] and in test [4] was > 30 µM (inactive) each time.
As for `O=C(Nc1ccc(OC(F)(F)F)cc1)c1sccc1NCc1ccnc2ccccc12` [OSI-930], the Kd in test [1], in test [2], in test [4] and in test [5] was > 30 µM (inactive) each time.
For `CN(c1ncccc1CNc1nc(Nc2ccc3c(c2)CC(=O)N3)ncc1C(F)(F)F)S(C)(=O)=O` [PF-00562271], the Kd in test [1], in test [2], in test [3] and in test [4] was > 30 µM (inactive) in each case.
With `N#CCNC(=O)c1ccc(-c2ccnc(Nc3ccc(N4CCOCC4)cc3)n2)cc1` [MOMELOTINIB], the Kd in test [1], in test [2], in test [3] and in test [4] was > 30 µM (inactive) each time.
`COc1cc2c(Oc3ccc4[nH]c(C)cc4c3F)ncnc2cc1OCCCN1CCCC1` [CEDIRANIB]: the Kd in test [2] and in test [4] was > 30 µM (inactive) in each case.
In the case of `Cn1cnc2c(F)c(Nc3ccc(Br)cc3Cl)c(C(=O)NOCCO)cc21` [SELUMETINIB], the Kd in test [2] and in test [4] was > 30 µM (inactive) in each case.
In the case of `COc1cc2c(N3CCN(C(=O)Nc4ccc(OC(C)C)cc4)CC3)ncnc2cc1OCCCN1CCCCC1` [TANDUTINIB], the Kd in test [2] and in test [4] was > 30 µM (inactive) throughout.
Consider `NC(=O)c1ccc(N(C(N)=O)c2c(F)cccc2F)nc1-c1ccc(F)cc1F` [VX-702], for which the Kd in test [1], in test [2], in test [4] and in test [5] was > 30 µM (inactive) in each case.
`CCN(CCCOc1ccc2c(Nc3cc(CC(=O)Nc4cccc(F)c4)n[nH]3)ncnc2c1)CCOP(=O)(O)O` [BARASERTIB]: the Kd in test [1], in test [2], in test [3] and in test [4] was > 30 µM (inactive) throughout.
For `CC1(C)CNc2cc(NC(=O)c3cccnc3NCc3ccncc3)ccc21` [MOTESANIB], the Kd in test [2] and in test [4] was > 30 µM (inactive) in each case.
As for `FC(F)(F)c1ccc(CNc2ccc(Cc3c[nH]c4ncc(Cl)cc34)cn2)cn1` [PEXIDARTINIB], the Kd in test [1], in test [2], in test [4] and in test [5] was > 30 µM (inactive) throughout.
On to `C=CCn1c(=O)c2cnc(Nc3ccc(N4CCN(C)CC4)cc3)nc2n1-c1cccc(C(C)(C)O)n1` [ADAVOSERTIB], for which the Kd in test [1], in test [2], in test [3] and in test [4] was > 30 µM (inactive) each time.
In the case of `CCc1nc(C(N)=O)c(Nc2ccc(N3CCC(N4CCN(C)CC4)CC3)c(OC)c2)nc1NC1CCOCC1` [GILTERITINIB], the Kd in test [1], in test [2], in test [4] and in test [5] was > 30 µM (inactive) throughout.
In the case of `CN(C)C/C=C/C(=O)Nc1cc2c(Nc3ccc(F)c(Cl)c3)ncnc2cc1O[C@H]1CCOC1` [AFATINIB], the Kd in test [2] and in test [4] was > 30 µM (inactive) throughout.
In the case of `CCOc1ccn(-c2ccc(F)cc2)c(=O)c1C(=O)Nc1ccc(Oc2ccnc(N)c2Cl)c(F)c1` [BMS-777607], the Kd in test [1], in test [3], in test [4] and in test [5] was > 30 µM (inactive) each time.
As to `COc1cc2ncnc(Nc3ccc(F)c(Cl)c3)c2cc1NC(=O)/C=C/CN1CCCCC1` [DACOMITINIB ANHYDROUS], the Kd in test [1], in test [2], in test [4] and in test [5] was > 30 µM (inactive) each time.
In the case of `O=S(=O)(c1cccc2cnccc12)N1CCCNCC1` [FASUDIL], the Kd in test [1], in test [2], in test [3] and in test [4] was > 30 µM (inactive) throughout.
Regarding `Cc1c(NC(=O)OC[C@@H]2COCCN2)cn2ncnc(Nc3ccc4c(cnn4Cc4cccc(F)c4)c3)c12` [AC-480], the Kd in test [1], in test [2], in test [4] and in test [5] was > 30 µM (inactive) in each case.
For `Cc1c(Cn2c(C)nc3c(C(=O)O)cc(N4CCOCC4)cc32)cccc1C(F)(F)F` [GSK-2636771], the Kd in test [1], in test [2], in test [4] and in test [5] was > 30 µM (inactive) throughout.
On to `C[C@]1(O)C[C@@H](c2nc(-c3ccc4ccc(-c5ccccc5)nc4c3)c3c(N)nccn32)C1` [LINSITINIB], for which the Kd in test [1] was > 30 µM (inactive); in test [2], > 30 µM (inactive); in test [4], 4.21 µM (active).
